Reference: patent US20230116196A1, “METHOD OF TREATING CNS DISORDERS WITH NEU[…] GABAERGIC COMPOUNDS” (priority 2017, published 2023)

Columns and labels:
[1] = test system: GABAA receptor α4 subunit S443; assay: Immunoblot of α4 S443 phosphorylation in hippocampal slices; type: cell-based, mouse; details: 100 SGE-516 for 5 min
Experimental: (§1) Treatment of hippocampal slices with SGE-516 increased the phosphorylation of S408/9 measured using pS408/9 antibodies. To produce antibodies specific for phosphorylated S443, rabbits were injected with a synthetic peptide corresponding to residues […] of the murine α4 subunit in which the serine residue corresponding to S443 was chemically phosphorylated; […]. Hippocampal slices were treated with vehicle (Con), or SGE-516 for 20 min. Slices were immunoblotted with pS408/9, β3, or actin antibodies. The ratio of pS408/9/β3 immunoreactivity was then normalized to control slices (100%=the line).
Affinity purified pS443 was used to immunoblot varying concentrations of the immunizing phosphor-peptide (PP). pS443 was used to immunoblot extracts of hippocampal slices treated without preadsorption (0), preadsorbed with the dephosphorylated (DP), or phosphorylated antigen (PP). […] Moreover, the detection of this band was blocked by the phospho—but not the dephospho-antigen (FIG. 7B).
Hippocampal slices were treated with vehicle (Con) or 100 SGE-516 for 5 min and then immunoblotted with pS443 and α4 antibodies as indicated. pS443 immunoreactivity in hippocampal slices was increased by exposure to SGE-516, while total α4 levels were unaffected (FIG. 7C).

[2] = test system: GABAA receptor β3 subunit S408/9; assay: Immunoblot of β3 S408/9 phosphorylation in hippocampal slices; type: cell-based, mouse; details: 20 min exposure (100 nM in FIG. 6)
Experimental: Asterisks represent a significant difference from control (ALLO: p<0.01, Student's t-test, n=10 slices, from 10 mice; SGE-516: p<0.05, Student's t-test, n=4 slices, from 4 mice). […] Asterisks represent a significant difference from control (ALLO: p<0.05, Student's t-test, n=8 slices; SGE-516: p<0.05, Student's t-test, n=4 slices).
(§2) Hippocampi were dissected out of acute slices from 8 to 12 week old C57/Bl6 mice and lysed with […] including: 20 mM Tris-HCl, 150 mM NaCl, 5 mM EDTA, 10 mM NaF, 2 mM Na3VO4, 10 mM pyrophosphate, 0.1% SDS and 1% Triton after drug treatment. The β3 subunit was isolated using immunoprecipitation with β3 antibodies, after correction for protein content and the specific activity of labeling. Results were attained by SDS/PAGE followed by autoradiography (Abramian et al., 2010). For biotinylation experiments hippocampi were dissected out of acute slices from 8 to 12 week old C57/Bl6 mice and incubated in artificial cerebrospinal fluid (ACSF) described above at 30° C. for 1 h for recovery before experimentation. Slices were then placed on ice and incubated for 30 min with 1 mg/mL NHS-SS-biotin (Pierce). Excess biotin was removed by a 50 mM glycine quenching buffer, followed by washing of slices three times in ice-cold ACSF. The tissue was snap frozen on dry ice for 5 min, thawed at 4° C. and lysed. The lysates were solubilized with 2% Triton at 4° C. on a rotating wheel for 1 h. The insoluble material was removed by centrifugation, and 350-500 μg of protein lysate were incubated with NeutrAvidin beads (Pierce) for 18-24 h at 4° C. Bound material was eluted with sample buffer and subjected to SDS/PAGE and then immunoblotted with the indicated antibodies. Blots were then quantified using the CCD-based ChemiDoc XRS ? system. Antibodies against the β3 subunit and the phospho-β3 antibody were generated and verified by the laboratory of S.J.M. (Vien et al., 2015).
as §1
Hippocampal slices were treated with 100 nM ALLO or P4 (progesterone), and S408/9 phosphorylation was then determined as detailed above, n=4 slices (FIG. 18D). Hippocampal slices were treated with 100 nM ORG (FIG. 18E). S408/9 phosphorylation was examined using immunoblotting. […]

[3] = test system: dentate gyrus granule cells (DGGCs); assay: sIPSCs in DGGCs after 15 min NAS exposure and >30 min wash; type: cell-based, mouse
Experimental: Bar graphs show average sIPSC decay and amplitude.
For tonic current measurements, an all-points histogram was plotted for a 10 s period before and during 100 μM picrotoxin application, once the response reached a plateau level. Recordings with unstable baselines were discarded. Fitting the histogram with a Gaussian distribution gave the mean baseline current amplitude and the difference between the amplitudes before and during picrotoxin was considered to be the tonic current. The negative section of the all-points histogram which corresponds to the inward IPSCs was not fitted with a Gaussian distribution (Kretschmannova et al., 2013; Nusser and Mody, 2002). Series resistance and whole-cell capacitance were continually monitored and compensated throughout the course of the experiment. Recordings were eliminated from data analysis if series resistance increased by >20%. Spontaneous inhibitory post-synaptic currents (sIPSCs) were analyzed using the mini-analysis software (version 5.6.4; Synaptosoft, Decatur, Ga.). […] Only recordings with a minimum of 200 events fitting these criteria were analyzed. sIPSCs amplitude, and frequency from each experimental condition was pooled and expressed as mean±SEM. To measure sIPSC decay, 100 consecutive events were averaged and the decay was fitted to a double exponential and the weighted decay constant (tw) was determined. […]

[4] = test system: GABAA receptor α4 S443 and β3 S408/9; assay: Phosphorylation of S443 and S408/9 in brains of mice after IP injection; type: in vivo, mouse; details: 5 mg/kg IP, 30 min after treatment
Experimental: C57/B16 mice injected with SGE-516 (5 mg/kg IP), or vehicle. 30 min after the treatment mice were sacrificed by microwave irradiation. SDS-soluble hippocampal extracts were then immunoblotted with pS443, α4, pS408/9, or β3 subunit antibodies.

[5] = test system: GABAA receptor α4 and β3 subunits; assay: Biotinylation: cell surface levels of GABAA receptor subunits in hippocampal slices; type: cell-based, mouse; details: for GABAA-β3-containing receptors at the plasma membrane / cell surface stability of the β3 subunit: acute hippocampal slices
Experimental: as §2
Hippocampal slices were treated as outlined above. Treated slices were then subject to biotinylation and lysis, and surface fractions were isolated on immobilized avidin. Surface (S) and total (T) fractions were immunoblotted with α4 and β3 subunit antibodies.
The ratio of surface/total (S/T) immunoreactivity was then normalized to levels seen in control (100%).

DGGCs from mutant mice = assay: sIPSC decay time in DGGCs from mutant mice; type: cell-based, mouse; details: 100 nM ALLO
Experimental: The ability of 100 nM ALLO to modulate the decay time of sIPSCs was compared in DGGCs from WT and S940A mice as detailed in FIG. 2.

Row | SMILES | pS443 immunoreactivity in hippocampal slices [1] | total α4 levels [1] | β3 S408/409 phosphorylation in hippocampal slices [2] | SGE-516 enhancement of sIPSC amplitude in presence of GFX ([3]; 100 nM SGE-516 with GFX) | sIPSC amplitude following exposure and wash ([3]; 100 nM, 15 min, >30 min wash) | phosphorylation of S443 and S408/9 in the brains of mice [4] | GABAA-β3-containing receptors at the plasma membrane / cell surface stability of the β3 subunit ([5]; 100 nM) | plasma membrane levels of GABAARs containing the α4 and β subunits, S/T normalized to control (100%) ([5]; WT mice slices, 100 nM, 20 min) | plasma membrane accumulation of both the α4 and β3 subunits ([5]; hippocampal slices, surface/total) | sIPSC decay time in the mutant mice (DGGCs from mutant mice)
1 | C[C@@]1(O)CC[C@@]2(C)[C@H](CC[C@@H]3[C@@H]2CC[C@]2(C)[C@@H](C(=O)Cn4nccn4)CC[C@@H]32)C1 [SGE-516] | increased | unaffected | increases | significantly reduced | significantly enhanced | increased | increases | 175-185% | increased | –
2 | CC(=O)[C@H]1CC[C@H]2[C@@H]3CC[C@H]4C[C@H](O)CC[C@]4(C)[C@H]3CC[C@]12C [ALLO, Allopregnanolone] | – | – | increases | – | – | – | increases | – | – | did not increase
